Laboratory results reported in PMC11820944, “Safirinium Fluorescent “Click” Molecular Probes: Synthesis, CuAAC Reactions, and Microscopic Imaging” (Molecules, 2025).

Legend:
CHO-K1 cells = test: Cellular uptake and distribution by fluorescence (confocal) microscopy; assay type: cell-based, Chinese hamster; details: 10 µM, 30 min
Procedure: Figure 6 Cellular uptake and intracellular distribution of selected probes (1 and 6) and triazole derivatives (11, 12, 13, and 15) in Chinese hamster ovary cells. CHO-K1 cells were cultured overnight and then incubated with the tested compounds (10 μM). Representative images (100× magnification) illustrating intracellular distribution of the compounds in CHO-K1 cells were captured after 30 min of incubation with the tested compounds. Scale bar = 20 μm.
CHO-K1 cells were seeded at a density of 2 × 10^5/well in 12-well plates containing cover slips at the bottom and cells were incubated for 24 h. Then, cells were fixed in 3.7% formaldehyde in PBS for 10 min in 37 °C, washed twice with PBS, and stained with compound solution (10 µM) for 30 min. After this time, the cells were rinsed 2 times with Gibco FluoroBrite DMEM and a coverslip was placed on a stock carrier with drops of culture medium. Finally, slides were mounted in ProLong™ Glass Antifade Mountant and visualized under an A1 confocal system built on a Nikon Eclipse Ti-E microscope (Japan) equipped with 405 and 561 nm diode lasers and a Plan Apo 100×/1.4 Oil DIC objective.

[1] = Fluorescence emission spectra and quantum yields (comparative method); assay type: physicochemical; details: for λ Emission: 1·10^-6 mol/dm^3, 365 nm excitation; for Fluorescence Quantum Yield: against A1 standard
Procedure: Fluorescence spectra were recorded using a Hitachi F-70000 spectrofluorimeter (P VWR-Hitachi, Japan), for 1 × 10^−6 mol/dm^3 solutions of the compounds in water and acetonitrile, at 365 nm excitation wavelength, using 5 nm excitation and 2.5 nm emission slits, and 700 V photomultiplier voltage. The spectra (Figures S2 and S4) were recorded in 400–700 nm range. The 1 × 10^−6 mol/dm^3 solutions were prepared by 100-fold dilution of the solutions used for absorption measurement.
Quantum yields of fluorescence (Table 1) were determined using the comparative method, from Formula (1), using the recorded absorption and emission spectra and diethyl Safirinium P zwitterion A1 (ϕ = 0.755 in water) as standard.(1) Φ=ΦstdFAstdnstd2/FstdAn^2 where ϕ, ϕstd—quantum yields; F, Fstd—integrals under fluorescence emission curves; A, Astd—absorbance at excitation wavelength, and n, nstd—refractive indices, for the compound and standard (std subscript), respectively.

in vitro = assay type: cell-based; details: Chinese hamster
Source text: (§1) CHO-K1 cell line was derived as a subclone from the parental CHO cell line, which was initiated from a biopsy of an ovary of an adult, female Chinese hamster commercially available in ATCC (CCL-61™). NIH-3T3 cell line was obtained from DSMZ, the German Collection of Microorganisms and Cell Cultures. CHO-K1 and NIH-3T3 cells were cultivated in F-12K Medium (ATCC 30-2004) and Dulbecco’s MEM with Glutamax™ 1 Medium (Gibco, Paisley, UK), respectively. Culture media were supplemented with fetal bovine serum (FBS, Gibco, Thermo Fisher Scientific, Waltham, MA, USA) to a final concentration of 10% and antibiotic to final concentration of 1% (pent/strept, Gibco, Thermo Fisher Scientific, Waltham, MA, USA). Cells were cultured in standard culture conditions (5% CO2, 37 °C, 95% humidity).
Cell viability was determined by the 3-(4,5-dimethylthiazol-2-yl)-2,5-diphenyltetrazolium bromide (MTT, Sigma Aldrich, Burlington, MA, USA) assay. […] The absorbance was measured at 570 nm (SpectraMax® iD3, Molecular Devices, San Jose, CA, USA) and the experiment was performed two times in duplicates. Cells viability was expressed as a percentage of viability (in comparison to non-treated cells normalized to 100%). Data were analyzed using GraphPad Prism Software (GraphPad Software, Inc., San Diego, CA, USA, version 10.3.1).

[2] = MTT cell viability assay, NIH-3T3 cells; assay type: cell-based; details: mouse, 24 h incubation, read-out: IC50 (cytotoxicity, cell viability)
Source text: as §1
Cell viability was determined by the 3-(4,5-dimethylthiazol-2-yl)-2,5-diphenyltetrazolium bromide (MTT, Sigma Aldrich, Burlington, MA, USA) assay. Cells were seeded into 96-well plates at density of 2 × 10^4 cell/well and cultured in the presence of compounds (1–4, 6–9, 11–13, and 15) at concentration range 1.56–100 µM for 24 h. The MTT reagent (final concentration 0.5 mg/mL) was added to each well for 3 h, and then formazan crystals were dissolved in DMSO. The absorbance was measured at 570 nm (SpectraMax® iD3, Molecular Devices, San Jose, CA, USA) and the experiment was performed two times in duplicates. Cells viability was expressed as a percentage of viability (in comparison to non-treated cells normalized to 100%). Data were analyzed using GraphPad Prism Software (GraphPad Software, Inc., San Diego, CA, USA, version 10.3.1).

[3] = Chemical stability of aqueous solution in daylight, RP-HPLC with fluorescence detection; assay type: physicochemical
Source text: To assess the chemical stability of Safirinium-based alkyne probes for RP-HPLC analysis, we developed a preliminary RP-HPLC method with fluorescent detection for the alkyne probe 1. This was accomplished using an LC-PCN column and a simple isocratic elution approach. Subsequently, we prepared a 10^−6 M aqueous solution of probe 1 and kept it exposed to natural daylight on a laboratory bench for 7 days. […] Assuming pseudo-first-order kinetics, it can be calculated that probe 1 can remain stable (95%) under such conditions for 12 h.
RP-HPLC analyses with fluorescence detection (Method B) were performed on a LaChrom Elite HPLC system, (VWR-Hitachi, Japan), equipped with a L-2130 pump, a L-2485 FL detector, a L-2350 column oven, and an L-2200 autosampler, the system was controlled with EZChrom Elite version 3.2, Agilent software. Separations were performed on a SUPELCOSIL LC-PCN 250 × 4.6 mm column with 5 µm grain size, under 1 mL/min isocratic elution with 50:50 v/v water: acetonitrile mixture, acidified with 0.1% formic acid. Injection volume was 20 µL; 10^−6 mol/dm^3 solution of probe 1 in water was prepared in a clear HPLC sample vial and analyzed directly after preparation and after 7 days (168 h) of standing on a lab bench, exposed to natural daylight at room temperature. Example chromatograms are presented in the electronic supporting information.

[4] = parameters: method as in PMID 23893376; details: in water; cited from earlier work

Structure (SMILES)	Cellular uptake and intracellular distribution (CHO-K1 cells)	λ Emission ([1]; Acetonitrile) [nm]	Fluorescence Quantum Yield ([1]; Acetonitrile)	λ Emission ([1]; H2O) [nm]	Fluorescence Quantum Yield ([1]; H2O)	IC50 at 24 h [2] [µM]	other results
CC[N+]1(CC)CN2C(=N1)C(C(=O)NCc1cn(C3CC(n4cc(C)c(=O)[nH]c4=O)OC3CO)nn1)=Cc1ccccc12 (stereo not shown) [Compound 13, 4-(((1-((2-(hydroxymethyl)-5-(5-methyl-2,4-dioxo-1,2,3,4-tetrahydropyrimidin-1-yl)oxolan-3-yl)-1H-1,2,3-triazol-4-yl)methyl)carbamoyl)-2,2-diethyl-1,2-dihydro-[1,2,4]triazolo[4,3-a]quinolin-2-ium bromide]	capable of entering the cytoplasm of the cells; however, they did not penetrate the nuclei	452	0.45	462	0.59		
CCCCCCCCCCCCCCn1cc(CNC(=O)C2=C(C)C=C(C)N3C[N+](CC)(CC)N=C23)nn1.[Br-] [Compound 11, 2,2-Diethyl-5,7-dimethyl-8-(((1-tetradecyl-1H-1,2,3-triazol-4-yl)methyl)carbamoyl)-2,3-dihydro-[1,2,4]triazolo[4,3-a]pyridin-2-ium bromide]	capable of entering the cytoplasm of the cells; however, they did not penetrate the nuclei	443	0.86	446	0.28		
C#CCNC(=O)C1=Cc2ccccc2N2C[N+](CCCCCCCC)(CCCCCCCC)N=C12 [Compound 4, 2,2-Dioctyl-4-(prop-2-yn-1-ylcarbamoyl)-1,2-dihydro-[1,2,4]triazolo[4,3-a]quinolin-2-ium bromide]						8.7	IC50 at 24 h (in vitro): 17.3 µM
C#CCNC(=O)C1=Cc2ccccc2N2C[N+](CC)(CC)N=C12.[Br-] [Compound 3, 2,2-Diethyl-4-(prop-2-yn-1-ylcarbamoyl)-1,2-dihydro-[1,2,4]triazolo[4,3-a]quinolin-2-ium bromide]		455	0.71	462	0.62		
C#CCNC(=O)C1=C(C)C=C(C)N2C[N+](CC)(CC)N=C12.[Br-] [Compound 1, 2,2-Diethyl-5,7-dimethyl-8-[(prop-2-yn-1-yl)carbamoyl]-2H,3H-[1,2,4]triazolo [4,3-a]pyridin-2-ium bromide]	capable of entering the cytoplasm of the cells; however, they did not penetrate the nuclei	443	0.86	446	1.00		half-life ([3]; 10^-6 M aqueous solution exposed to natural daylight): ~168 h; RP-HPLC peak area decrease ([3]; 10^-6 M aqueous solution, natural daylight, room temperature, 7 days): 50%; Time of remaining stable (95%) ([3]; aqueous solution exposed to daylight, assuming pseudo-first-order kinetics): 12 h
CC[N+]1(CC)CN2C(=N1)C(C(=O)NCCCCCN=[N+]=[N-])=Cc1ccccc12.[Br-] [Compound 8, 4-((5-Azidopentyl)carbamoyl)-2,2-diethyl-1,2-dihydro-[1,2,4]triazolo[4,3-a]quinolin-2-ium bromide]		452	0.68	459	0.60		
CC[N+]1(CC)CN2C(C)=CC(C)=C(C(=O)NCCCCCN=[N+]=[N-])C2=N1.[Br-] [Compound 6, 8-((5-Azidopentyl)carbamoyl)-2,2-diethyl-5,7-dimethyl-2,3-dihydro-[1,2,4]triazolo[4,3-a]pyridin-2-ium bromide]	capable of entering the cytoplasm of the cells; however, they did not penetrate the nuclei						
CCCCCCCC[N+]1(CCCCCCCC)CN2C(=N1)C(C(=O)NCCCCCN=[N+]=[N-])=Cc1ccccc12 [Compound 9, 4-((5-Azidopentyl)carbamoyl)-2,2-dioctyl-1,2-dihydro-[1,2,4]triazolo[4,3-a]quinolin-2-ium bromide]						13	IC50 at 24 h (in vitro): 11 µM
CC[N+]1(CC)CN2C(=N1)C(C(=O)NCCCCCn1cc(CO)nn1)=Cc1ccccc12.[Br-] [Compound 15, 2,2-Diethyl-4-({5-[4-(hydroxymethyl)-1H-1,2,3-triazol-1-yl]pentyl}carbamoyl)-1H,2H-[1,2,4]triazolo[4,3-a]quinolin-2-ium bromide]	capable of entering the cytoplasm of the cells; however, they did not penetrate the nuclei	454	0.53	459	0.55		
CC[N+]1(CC)CN2C(=N1)C(C(=O)NCc1cn(C3O[C@H](COC(C)=O)[C@@H](OC(C)=O)[C@H](OC(C)=O)[C@H]3OC(C)=O)nn1)=Cc1ccccc12.[Br-] (stereo partly drawn) [Compound 12, 2,2-Diethyl-4-(((1-((3R,4S,5R,6R)-3,4,5-triacetoxy-6-(acetoxymethyl)tetrahydro-2H-pyran-2-yl)-1H-1,2,3-triazol-4-yl)methyl)carbamoyl)-1,2-dihydro-[1,2,4]triazolo[4,3-a]quinolin-2-ium bromide]	capable of entering the cytoplasm of the cells; however, they did not penetrate the nuclei						
CC[N+]1(CC)CN2C(C)=CC(C)=C(C(=O)[O-])C2=N1 [Compound A1]							Fluorescence quantum yield (ϕ) of standard [4]: 0.755
CCCCCCCC[N+]1(CCCCCCCC)CN2C(C)=CC(C)=C(C(=O)NCCCCCN=[N+]=[N-])C2=N1 [Compound 7, 8-((5-Azidopentyl)carbamoyl)-5,7-dimethyl-2,2-dioctyl-2,3-dihydro-[1,2,4]triazolo[4,3-a]pyridin-2-ium bromide]						26.4	
C#CCNC(=O)C1=C(C)C=C(C)N2C[N+](CCCCCCCC)(CCCCCCCC)N=C12 [Compound 2, 5,7-Dimethyl-2,2-dioctyl-8-(prop-2-yn-1-ylcarbamoyl)-2,3-dihydro-[1,2,4]triazolo[4,3-a]pyridin-2-ium bromide]						17.5	
